Assay [1] is described as follows: Cell cycle arrest in human Hep3B cells by accumulation at subG1 phase at 24 ug/mL after 24 hrs by flow cytometry. As to conditions: Hep 3B2. The format is functional, cell-based.
The nature of assay [2]: Cell cycle arrest in human Hep3B cells by accumulation at G2/M phase at 100 ug/mL after 24 hrs by flow cytometry. Format: functional, cell-based. The note with it: Hep 3B2. In general terms: In flow cytometry, cells or beads pass a laser one at a time.
Assay [3] in a line: Cell cycle arrest in human Hep3B cells by accumulation at S phase at 100 ug/mL after 24 hrs by flow cytometry. The note with it: Hep 3B2. The format is functional, cell-based.
A short description of assay [4]: Cell cycle arrest in human Hep3B cells by accumulation at G0/G1 phase at 35 ug/mL after 24 hrs by flow cytometry. The note with it: Hep 3B2. Format: functional, cell-based.
The nature of assay [5]: Cell cycle arrest in human Hep3B cells by accumulation at G2/M phase at 20 ug/mL after 24 hrs by flow cytometry. The format is functional, cell-based. As to conditions: Hep 3B2.
The nature of assay [6]: Cell cycle arrest in human Hep3B cells by accumulation at S phase at 20 ug/mL after 24 hrs by flow cytometry. As to conditions: Hep 3B2. The format is functional, cell-based.
A short description of assay [7]: Cell cycle arrest in human Hep3B cells by accumulation at G0/G1 phase at 100 ug/mL after 24 hrs by flow cytometry. The format is functional, cell-based. As to conditions: Hep 3B2.
A short description of assay [8]: Cell cycle arrest in human Hep3B cells by accumulation at G0/G1 phase at 20 ug/mL after 24 hrs by flow cytometry. Format: functional, cell-based. The note with it: Hep 3B2.
A short description of assay [9]: Cell cycle arrest in human Hep3B cells by accumulation at G2/M phase after 24 hrs by flow cytometry. Format: functional, cell-based, Hep 3B2.
Assay [10] can be described thus: Cell cycle arrest in human Hep3B cells by accumulation at G2/M phase at 50 ug/mL after 24 hrs by flow cytometry. The format is functional, cell-based. As to conditions: Hep 3B2.
The nature of assay [11]: Cell cycle arrest in human Hep3B cells by accumulation at G0/G1 phase at 50 ug/mL after 24 hrs by flow cytometry. As to conditions: Hep 3B2. Format: functional, cell-based.
The nature of assay [12]: Cell cycle arrest in human Hep3B cells by accumulation at S phase at 50 ug/mL after 24 hrs by flow cytometry. Format: functional, cell-based. As to conditions: Hep 3B2.
A short description of assay [13]: Cell cycle arrest in human Hep3B cells by accumulation at S phase at 35 ug/mL after 24 hrs by flow cytometry. The format is functional, cell-based. The note with it: Hep 3B2.
Assay [14] in a line: Cell cycle arrest in human Hep3B cells by accumulation at G2/M phase at 35 ug/mL after 24 hrs by flow cytometry. The format is functional, cell-based. As to conditions: Hep 3B2.

Converted amounts (≈) assume the structure as drawn. The source made the active and inactive calls. The rule behind the calls is not given here.

`CC(=O)O[C@@H]1CC[C@]2(C)C3=C(CC[C@H]2C1(C)C)[C@]1(C)CC[C@H]([C@@H](CCC=C(C)C)C(=O)O[C@@H]2O[C@H](CO)[C@@H](O)[C@H](O)[C@H]2O)[C@@]1(C)CC3`: the outcome in assay [1] was Active.
The IC50 is the concentration that gives 50% inhibition. Consider `CC(C)[C@@H](C)/C=C/[C@@H](C)[C@H]1CC[C@H]2C3=CC[C@H]4C[C@H](O)[C@@H](O)C[C@]4(C)[C@@]3(O)CC[C@]12C`, for which the Activity in assay [2] is 5.2%; in [3], 37%; in [4], 55.3%; in [5] it was 12.6%; in assay [6], 36.8%; in assay [7], 57.8%. Besides, the Activity in assay [8] stood at 50.6%; in assay [10], 9.2%; in assay [11] it was 55.3%; in assay [12], 35.5%; in assay [13] it was 35%; in [14], 9.8%. Besides, in assay [9], inhibition was half-maximal at 87.1 µg/mL (≈ 202 µM) (IC50).

The record behind these values is ChEMBL document CHEMBL1158670, “Mediation of the cytotoxicity of lanostanoids and steroids of Ganoderma tsugae through apoptosis and cell cycle” (J Nat Prod, 1998).
